Reference: patent US5457114A, “Amidinophenylalanine derivatives, a process for the preparation thereof, use thereof and agents containing these as anticoagulants” (Behringwerke Aktiengesellschaft, priority 1991, dated 1995)
pKi: −log10 of the molar value.

How the values were obtained:
[1] = biological target: human thrombin (Homo sapiens, UniProt P00734); assay: Determination of the inhibition constants for thrombin; type: biochemical; settings: human thrombin 100 pM, 0.1 mM substrate S2238, pH 7.8, 37 degrees C., 10 min preincubation
Description: The inhibition constants (Ki) for the substances were determined by known enzyme kinetic methods. The purity of the human thrombin employed was determined to be 87% by means of active site titration. […] Inhibitor and enzyme were preincubated for 10 minutes, and the reaction was started by adding the chromogenic substrate S2238.
The specificity of the inhibitors for thrombin and trypsin was determined. The specificity is defined as the ratio of the Ki values for trypsin and thrombin (Table II). […] The Ki values were calculated ([…]) from the IC50 value for thrombin and trypsin. The specificities emerged from the ratio of the trypsin and thrombin values.

[2] = biological target: T1, Trypsin from bovine pancreas (Bos taurus, UniProt P00760); assay: Determination of the specificity of the inhibitors (trypsin versus thrombin); type: biochemical; settings: ratio of the Ki values for trypsin and thrombin; Ki calculated from IC50
T1 construct: from tissue; host or cells: bovine pancreas
T1 sequence (P00760 24-246): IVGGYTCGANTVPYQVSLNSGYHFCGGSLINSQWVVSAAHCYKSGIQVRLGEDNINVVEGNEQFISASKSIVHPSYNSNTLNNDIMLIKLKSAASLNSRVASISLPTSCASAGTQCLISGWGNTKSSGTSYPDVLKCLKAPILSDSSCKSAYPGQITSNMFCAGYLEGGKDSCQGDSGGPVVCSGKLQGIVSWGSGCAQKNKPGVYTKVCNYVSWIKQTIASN
Description: The specificity of the inhibitors for thrombin and trypsin was determined. The specificity is defined as the ratio of the Ki values for trypsin and thrombin (Table II). […] The enzymatic reaction was started by adding the substrate Chromozym TRY (7.1×10^-5 M). The liberation of pNA was measured at 405 nm after one hour. The IC50 values for thrombin were determined in an analogous manner, with the exceptions that human thrombin, buffer (50 mM tris-HCl, 50 mM NaCl, pH 7.8) and 5×10^-5 M S 2238 were used. The Ki values were calculated ([…]) from the IC50 value for thrombin and trypsin. The specificities emerged from the ratio of the trypsin and thrombin values.

[3] = Enteral administration; settings: in vivo
[4] = rat, i.v.

| Compound | pKi [1] | Specificity thrombin/trypsin [2] | possibility of enteral administration [3] | LD50 [4] |
| --- | --- | --- | --- | --- |
| 4-Methoxy-2,3,6-trimethylphenylsulfonyl-L-Cys(SO3 H)-D-p-amidinophenylalanyl Piperidide [Mtr-L-Cys (SO3 H)-D-Aph-Pip] | 9.22 | 150 | – | – |
| COc1cc(C)c(S(=O)(=O)N[C@@H](CC(=O)NCCCC(=O)O)C(=O)N[C@H](Cc2ccc(C(=N)N)cc2)C(=O)N2CCCCC2)c(C)c1C [4-Methoxy-2,3,6-trimethylbenzenesulfonyl-L-aspartic Acid (Gamma-aminobutyric Acid)-D-Aph-piperidide] | 9.10 | 1810 | – | – |
| COc1cc(C)c(S(=O)(=O)N[C@@H](CC(=O)N[C@@H]2O[C@H](C(=O)O)[C@@H](O)[C@H](O)[C@H]2O)C(=O)N[C@H](Cc2ccc(C(=N)N)cc2)C(=O)N2CCCCC2)c(C)c1C [4-Methoxy-2,3,6-trimethylphenylsulfonyl-L-asparaginyl-N-[β-D-glucopyranosyl)uronic acid]-D-p-amidinophenylalanyl Piperidide] | 10.07 | 4106 | – | – |
| COc1cc2ccc(S(=O)(=O)N[C@@H](CC(=O)O)C(=O)N[C@H](Cc3ccc(C(=N)N)cc3)C(=O)N3CCCCC3)cc2cc1OC [Dmn-Asp-D-Aph-Pip, 6,7-Dimethoxy-β-naphthalenesulfonyl-L-Asp-D-p-amidinophenylalanyl Piperidide] | 8.22 | 230 | – | – |
| COc1cc(C)c(S(=O)(=O)N[C@@H](CC(=O)OC(C)C)C(=O)N[C@H](Cc2ccc(C(=N)N)cc2)C(=O)N2CCCCC2)c(C)c1C [Mtr-Asp(iPr)-Aph-Pip, Mtr-L-Asp(OiPr)-D-Aph-Pip] | 9.22 | 378 | – | – |
| COc1cc(C)c(S(=O)(=O)NC(CC(=O)OC(C)(C)C)C(=O)NC(Cc2ccc(C(=N)N)cc2)C(=O)N2CCCCC2)c(C)c1C [Mtr-Asp(tBu)-Aph-Pip, Mtr-L-Asp(OtBu)-D-Aph-Pip] | 9.05 | 297 | – | – |
| COc1cc(C)c(S(=O)(=O)N[C@@H](CC(=O)O)C(=O)N[C@H](Cc2ccc(C(=N)N)cc2)C(=O)N2CCCCC2)c(C)c1C [Mtr-Asp-D-Aph-Pip, 4-Methoxy-2,3,6-trimethylphenylsulfonyl-L-Asp-D-p-amidinophenylalanyl Piperidide] | 8.82 | 125 | possibility of enteral administration | – |
| N=C(N)c1ccc(CC(NC(=O)CNS(=O)(=O)c2ccc3ccccc3c2)C(=O)N2CCCCC2)cc1 (stereo not drawn) [Napap, beta-naphthylsulfonyl-glycyl-R,S-4-amidinophenylalanyl piperidide, reference compound] | – | 24 | – | – |
| N=C(N)c1ccc(C[C@H](NC(=O)[C@H](CC(N)=O)NS(=O)(=O)c2ccc3ccccc3c2)C(=O)N2CCCCC2)cc1 [Nas-Asn-Aph-Pip] | 8.22 | 48 | – | – |
| N=C(N)c1ccc(CC(NC(=O)[C@H](CC(=O)O)NS(=O)(=O)c2ccc3ccccc3c2)C(=O)N2CCCCC2)cc1 (stereo partly drawn) [β-naphthylsulfonyl-L-Asp-D,L-Aph-Pip, β-Naphthylsulfonyl-L-Asp-D,L-Aph-Pip] | – | – | – | about 120 mg/kg |
| Beta-Naphthylsulfonyl-L-aspartic Acid D-p-amidinophenyl-alanyl-piperidide [Nas-Asp-D-Aph-Pip] | 8.00 | 7 | – | – |
